Measurements published in ChEMBL document CHEMBL1201862, “PubChem BioAssay data set” (2004).
Structures can show the parent of a compound that is named as a salt. Calls of active or inactive are those of the source.

Legend:
[1] = target: T1, Ubiquitin-conjugating enzyme E2 N (Homo sapiens, UniProt P61088); type: functional;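 further: Dose-response confirmation in a TR-FRET assay detecting UBC13-driven polyubiquitin chain formation, inhibition measured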
T1 sequence (P61088 whole entry): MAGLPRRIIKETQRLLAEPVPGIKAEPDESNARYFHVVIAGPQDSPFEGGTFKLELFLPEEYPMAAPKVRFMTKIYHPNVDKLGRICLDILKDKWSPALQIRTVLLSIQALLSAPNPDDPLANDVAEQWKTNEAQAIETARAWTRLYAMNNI

[2] = Luminescence Cell-Based Dose Response HTS to Identify Inhibitors of 5'UTR Stem-Loop Driven Prion Protein mRNA Translation in H4 Neuroglioblastoma Cells. [Related pubchem assays: 1827 (Project Summary), 1813 (Primary HTS)]; type: functional
[3] = luciferase reporter signal suppression in cells – H4 neuroglioma cells, luminescence, dose response (AID 1990); type: functional, cell-based
[4] = loss of viability in HepG2 cells – cell-based, CellTiter-Glo, cherry-picked, cytotoxicity control for Shn3 inhibitor project, dose response (AID 624134); type: functional
[5] = viability of HCT116 lacking mutant beta-catenin – cell-based, human colon tumor, dose response (AID 1045); type: functional;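 further: HCT116 colon tumor cells with beta catenin knocked out; cells exposed to compound for 60 hours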
[6] = non-specific 3'UTR reporter inhibition in Clone20-Shn3RL – cell-based, Renilla luciferase, cherry-picked, counter-screen for Shn3 inhibitor project, dose response (AID 624133); type: functional
[7] = reduction of Shn3 3'UTR-driven luciferase in osteoblasts – cell-based, Clone20 osteoblasts, firefly luciferase, cherry-picked, dose response (AID 624132); type: functional;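 further: firefly luciferase luminescence from reporter carrying the Shn3 3'UTR in osteoblasts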
[8] = viability of PTEN-deleted HCT116 cells – cell-based, HCT116 PTEN knockout, dose response (AID 1047); type: functional;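 further: HCT116 colon tumor cells with PTEN knocked out; cells exposed to compound for 60 hours before readout; potency for loss of cell viability measured by luminescence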
[9] = alpha-synuclein stem-loop luciferase translation blockers – H4 neuroglioma cells, luminescence, confirmation (AID 1988); type: functional, cell-based
[10] = target: T2, Histone-lysine N-methyltransferase NSD2 (Homo sapiens, UniProt O96028); type: biochemical
T2 sequence (O96028 whole entry): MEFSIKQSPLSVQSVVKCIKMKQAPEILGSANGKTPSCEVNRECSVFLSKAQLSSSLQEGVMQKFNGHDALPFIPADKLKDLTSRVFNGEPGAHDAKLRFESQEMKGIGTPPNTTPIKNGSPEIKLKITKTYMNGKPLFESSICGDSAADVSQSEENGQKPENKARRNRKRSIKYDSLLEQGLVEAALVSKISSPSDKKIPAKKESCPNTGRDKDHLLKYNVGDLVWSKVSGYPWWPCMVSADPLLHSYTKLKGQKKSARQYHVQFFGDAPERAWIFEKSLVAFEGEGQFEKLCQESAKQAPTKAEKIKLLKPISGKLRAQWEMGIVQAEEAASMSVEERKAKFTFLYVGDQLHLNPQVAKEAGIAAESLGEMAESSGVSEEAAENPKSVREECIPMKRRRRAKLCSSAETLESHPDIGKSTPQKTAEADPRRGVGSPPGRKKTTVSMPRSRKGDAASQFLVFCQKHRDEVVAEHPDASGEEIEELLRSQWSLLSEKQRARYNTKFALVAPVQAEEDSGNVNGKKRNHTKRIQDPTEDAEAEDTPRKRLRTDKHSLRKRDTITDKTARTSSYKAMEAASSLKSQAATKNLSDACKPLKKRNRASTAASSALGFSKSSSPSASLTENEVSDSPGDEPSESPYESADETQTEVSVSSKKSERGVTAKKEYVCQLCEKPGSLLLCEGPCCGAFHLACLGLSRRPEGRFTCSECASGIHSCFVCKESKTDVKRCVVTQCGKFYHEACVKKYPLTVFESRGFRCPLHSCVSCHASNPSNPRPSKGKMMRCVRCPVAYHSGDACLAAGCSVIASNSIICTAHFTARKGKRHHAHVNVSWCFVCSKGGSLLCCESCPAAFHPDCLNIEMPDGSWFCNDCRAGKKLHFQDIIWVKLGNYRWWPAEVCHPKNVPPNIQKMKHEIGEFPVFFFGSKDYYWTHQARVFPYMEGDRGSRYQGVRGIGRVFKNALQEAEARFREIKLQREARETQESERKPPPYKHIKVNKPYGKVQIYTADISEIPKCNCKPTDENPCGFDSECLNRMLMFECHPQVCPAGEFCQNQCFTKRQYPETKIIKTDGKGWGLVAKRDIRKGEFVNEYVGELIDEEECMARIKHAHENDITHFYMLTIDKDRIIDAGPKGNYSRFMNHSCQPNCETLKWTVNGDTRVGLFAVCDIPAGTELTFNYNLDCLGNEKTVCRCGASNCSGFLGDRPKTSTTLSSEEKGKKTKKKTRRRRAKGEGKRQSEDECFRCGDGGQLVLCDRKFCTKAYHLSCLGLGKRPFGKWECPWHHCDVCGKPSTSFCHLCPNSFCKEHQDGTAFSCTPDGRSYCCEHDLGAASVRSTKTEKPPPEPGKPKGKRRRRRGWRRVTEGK

HT-1080 = test: HT1080 cell viability loss – fluorescence readout (AID 620); type: functional, cell-based; settings: Homo sapiens
[11] = target: Luciferin 4-monooxygenase (Photinus pyralis, UniProt P08659); test: Counter Screen for Luciferase-based Assay Positives. [Related pubchem assays: 620, 618, 411 ]
[12] = target: T3, Heat shock factor protein 1 (Mus musculus, UniProt P38532); test: enhancement of HSF1-driven luciferase signal – cell-based, NIH3T3, luminescence, dose retest, confirmation (AID 435004); type: functional;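 further: stress induced by proteasome inhibitor MG132 added 30 min after compound; luciferase reporter driven by HSF1 response element in NIH3T3 cells; actives raise luminescence as potentiators of the MG132 stress response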
T3 sequence (P38532 whole entry): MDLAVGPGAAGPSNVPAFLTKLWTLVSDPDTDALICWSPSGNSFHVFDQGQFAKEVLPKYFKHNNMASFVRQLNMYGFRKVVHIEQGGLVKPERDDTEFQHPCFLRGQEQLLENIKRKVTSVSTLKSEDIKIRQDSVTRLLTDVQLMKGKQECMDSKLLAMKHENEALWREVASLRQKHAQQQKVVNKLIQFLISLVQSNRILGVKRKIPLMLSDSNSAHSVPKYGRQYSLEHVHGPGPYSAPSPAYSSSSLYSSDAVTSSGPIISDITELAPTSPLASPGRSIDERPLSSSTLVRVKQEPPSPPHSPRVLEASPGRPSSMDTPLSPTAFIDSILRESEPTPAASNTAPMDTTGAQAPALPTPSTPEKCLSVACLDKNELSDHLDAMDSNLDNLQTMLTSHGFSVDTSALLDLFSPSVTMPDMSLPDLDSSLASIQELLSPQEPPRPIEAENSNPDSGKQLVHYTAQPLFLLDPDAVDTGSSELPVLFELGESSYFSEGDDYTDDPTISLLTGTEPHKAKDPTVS

Leucine aminopeptidase = target: T4, Leucine aminopeptidase (Plasmodium falciparum 3D7, UniProt Q8IL11); test: P. falciparum M17LAP inhibitors, primary screen, biochemical, fluorogenic H-Leu-NHMec substrate, 1536-well (AID 1619); type: functional
T4 sequence (Q8IL11 whole entry): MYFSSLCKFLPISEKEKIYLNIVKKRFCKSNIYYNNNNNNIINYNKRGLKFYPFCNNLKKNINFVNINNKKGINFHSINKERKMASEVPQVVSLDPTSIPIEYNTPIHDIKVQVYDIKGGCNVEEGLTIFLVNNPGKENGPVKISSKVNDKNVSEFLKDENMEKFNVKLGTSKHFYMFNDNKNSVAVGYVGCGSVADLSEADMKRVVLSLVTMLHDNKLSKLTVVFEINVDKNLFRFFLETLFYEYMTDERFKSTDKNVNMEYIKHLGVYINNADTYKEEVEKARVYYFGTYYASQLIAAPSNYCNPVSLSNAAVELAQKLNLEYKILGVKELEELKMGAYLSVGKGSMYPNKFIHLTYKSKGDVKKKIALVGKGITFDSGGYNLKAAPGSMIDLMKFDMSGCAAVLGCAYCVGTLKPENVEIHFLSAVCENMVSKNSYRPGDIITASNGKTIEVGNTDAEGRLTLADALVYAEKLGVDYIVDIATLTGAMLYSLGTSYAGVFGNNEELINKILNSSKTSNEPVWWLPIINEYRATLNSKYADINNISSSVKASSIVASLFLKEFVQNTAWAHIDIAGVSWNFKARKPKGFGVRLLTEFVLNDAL

[13] = target: Induced myeloid leukemia cell differentiation protein Mcl-1 (Homo sapiens, UniProt Q07820); type: functional
[14] = viability loss in THP-1 monocytes – THP-1 cells, cytotoxicity control for Vif-APOBEC3G degradation inhibitor project, dose response (AID 1117359); type: functional; settings: THP-1
[15] = target: T5, Long-chain-fatty-acid--AMP ligase FadD28 (Mycobacterium tuberculosis, UniProt P9WQ59); test: Fluorescence polarization aasay to screen for inhibitors that compete for the binding of FadD28 to a bisubstrate Measured in Biochemical System Using Plate Reader - 2147-01_Inhibitor_Dose_CherryPick_Activity.; type: functional, Mycobacterium tuberculosis H37Rv
T5 sequence (P9WQ59 whole entry): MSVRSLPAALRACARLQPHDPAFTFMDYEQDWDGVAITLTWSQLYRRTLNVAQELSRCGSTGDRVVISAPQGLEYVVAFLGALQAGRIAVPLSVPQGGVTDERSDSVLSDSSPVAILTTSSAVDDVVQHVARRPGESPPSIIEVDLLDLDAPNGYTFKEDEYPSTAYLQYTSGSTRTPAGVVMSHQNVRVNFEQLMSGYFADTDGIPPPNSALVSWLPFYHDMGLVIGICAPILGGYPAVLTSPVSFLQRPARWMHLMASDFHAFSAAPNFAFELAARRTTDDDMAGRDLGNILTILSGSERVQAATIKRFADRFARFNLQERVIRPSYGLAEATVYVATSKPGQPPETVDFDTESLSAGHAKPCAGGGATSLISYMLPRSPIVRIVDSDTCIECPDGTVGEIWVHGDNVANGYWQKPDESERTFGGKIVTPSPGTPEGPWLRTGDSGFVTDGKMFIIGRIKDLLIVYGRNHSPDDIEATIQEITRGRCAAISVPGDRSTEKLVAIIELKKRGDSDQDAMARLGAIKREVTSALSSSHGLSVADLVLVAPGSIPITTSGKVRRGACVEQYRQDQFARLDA

Genome polyprotein = Genome polyprotein (dengue virus type 2, UniProt P29990); test: flavivirus cap methylation enzyme inhibition – biochemical, confirmation dose response, primary screen (AID 588689); type: functional
[16] = Trypanosoma cruzi growth suppression in host cells – NIH3T3 host cells, beta-gal luminescence, confirmation (AID 2044); type: functional, cell-based;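 further: intracellular parasites grown in NIH/3T3 mouse fibroblasts as host cells; luminescent beta-galactosidase reporter signal from transgenic T. cruzi replicating inside host cells; inhibitors lower the luminescence signal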
[17] = target: FAD-linked sulfhydryl oxidase ALR (Homo sapiens, UniProt P55789); test: ALR-catalysed DTT oxidation blockers – biochemical, H2O2 detection, luminescence, cherry-pick, dose response (AID 493248)
[18] = NIH3T3 cell viability loss – ATP luminescence, mouse fibroblasts, counter-screen, dose response (AID 2010); type: functional, cell-based;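 further: cells exposed to compound for about 90 hours before reading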
[19] = target: T6, Trace amine-associated receptor 1 (Homo sapiens, UniProt Q96RJ0); test: Counterscreen for agonists of the human trace amine associated receptor 1 (hTAAR1): Fluorescence-based cell-based high throughput dose response assay to identify hTAAR1 agonist that also desensitize TAAR1 receptor response.; type: functional
T6 sequence (Q96RJ0 whole entry): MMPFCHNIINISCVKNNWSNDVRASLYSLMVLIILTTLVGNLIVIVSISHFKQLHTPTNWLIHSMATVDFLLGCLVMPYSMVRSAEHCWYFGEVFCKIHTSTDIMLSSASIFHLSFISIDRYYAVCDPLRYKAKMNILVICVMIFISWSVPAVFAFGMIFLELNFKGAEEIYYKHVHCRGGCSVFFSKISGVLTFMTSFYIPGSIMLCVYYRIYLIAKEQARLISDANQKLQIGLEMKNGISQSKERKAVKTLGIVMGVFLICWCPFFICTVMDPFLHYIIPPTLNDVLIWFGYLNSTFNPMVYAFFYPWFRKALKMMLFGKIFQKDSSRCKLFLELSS

[20] = target: T6, Trace amine-associated receptor 1; test: Fluorescence-based cell-based high throughput dose response assay to identify agonists of the human trace amine associated receptor 1 (TAAR1).; type: functional

Genome polyprotein, sequence (P29990 2492-3391 limits assumed): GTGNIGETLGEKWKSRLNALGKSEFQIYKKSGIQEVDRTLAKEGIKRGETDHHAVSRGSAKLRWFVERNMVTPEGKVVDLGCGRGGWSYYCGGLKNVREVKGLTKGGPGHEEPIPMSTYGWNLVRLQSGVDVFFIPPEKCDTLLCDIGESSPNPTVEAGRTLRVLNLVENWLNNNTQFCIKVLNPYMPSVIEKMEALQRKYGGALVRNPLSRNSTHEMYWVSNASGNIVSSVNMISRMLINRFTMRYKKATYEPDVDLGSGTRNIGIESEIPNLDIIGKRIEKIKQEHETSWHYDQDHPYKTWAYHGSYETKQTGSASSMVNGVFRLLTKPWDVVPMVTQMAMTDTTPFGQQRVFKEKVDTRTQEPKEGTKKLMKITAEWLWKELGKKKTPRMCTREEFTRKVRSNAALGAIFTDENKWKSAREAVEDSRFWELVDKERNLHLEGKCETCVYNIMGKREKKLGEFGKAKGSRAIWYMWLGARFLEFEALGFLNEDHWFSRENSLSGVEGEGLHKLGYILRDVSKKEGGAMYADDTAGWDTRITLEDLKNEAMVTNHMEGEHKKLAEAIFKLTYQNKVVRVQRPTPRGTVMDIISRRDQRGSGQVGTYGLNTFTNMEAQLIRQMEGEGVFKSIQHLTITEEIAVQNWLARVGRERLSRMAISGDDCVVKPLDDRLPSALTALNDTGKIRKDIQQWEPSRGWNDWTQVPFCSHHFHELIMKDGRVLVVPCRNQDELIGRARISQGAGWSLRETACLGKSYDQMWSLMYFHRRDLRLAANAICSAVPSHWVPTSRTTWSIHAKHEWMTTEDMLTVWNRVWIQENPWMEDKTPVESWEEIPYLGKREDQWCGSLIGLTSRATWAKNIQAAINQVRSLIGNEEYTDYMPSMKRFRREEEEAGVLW
Luciferin 4-monooxygenase, sequence (P08659 whole entry): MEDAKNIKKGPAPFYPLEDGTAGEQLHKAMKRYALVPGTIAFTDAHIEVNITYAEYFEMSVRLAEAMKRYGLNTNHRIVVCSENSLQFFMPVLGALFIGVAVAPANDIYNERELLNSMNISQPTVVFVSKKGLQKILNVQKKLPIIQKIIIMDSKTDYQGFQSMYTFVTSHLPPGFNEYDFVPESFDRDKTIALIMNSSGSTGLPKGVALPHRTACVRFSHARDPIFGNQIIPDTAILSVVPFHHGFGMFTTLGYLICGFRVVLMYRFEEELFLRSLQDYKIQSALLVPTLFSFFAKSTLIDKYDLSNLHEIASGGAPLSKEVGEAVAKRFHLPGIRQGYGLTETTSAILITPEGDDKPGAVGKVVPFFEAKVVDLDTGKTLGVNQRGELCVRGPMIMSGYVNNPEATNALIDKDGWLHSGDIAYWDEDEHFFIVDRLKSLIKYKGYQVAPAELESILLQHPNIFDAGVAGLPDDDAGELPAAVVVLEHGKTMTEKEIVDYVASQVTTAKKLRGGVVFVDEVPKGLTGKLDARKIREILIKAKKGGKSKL
Induced myeloid leukemia cell differentiation protein Mcl-1, sequence (Q07820 whole entry): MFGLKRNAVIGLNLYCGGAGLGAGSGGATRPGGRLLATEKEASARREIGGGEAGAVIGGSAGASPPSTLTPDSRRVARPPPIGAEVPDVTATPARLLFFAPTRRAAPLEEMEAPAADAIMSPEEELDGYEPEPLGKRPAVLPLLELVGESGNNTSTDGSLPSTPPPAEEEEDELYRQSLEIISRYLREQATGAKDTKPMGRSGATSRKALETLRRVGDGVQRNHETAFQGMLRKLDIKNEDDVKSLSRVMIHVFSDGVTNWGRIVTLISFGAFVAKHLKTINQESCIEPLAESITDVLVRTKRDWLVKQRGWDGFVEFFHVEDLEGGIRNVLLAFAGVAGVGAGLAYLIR
FAD-linked sulfhydryl oxidase ALR, sequence (P55789 whole entry): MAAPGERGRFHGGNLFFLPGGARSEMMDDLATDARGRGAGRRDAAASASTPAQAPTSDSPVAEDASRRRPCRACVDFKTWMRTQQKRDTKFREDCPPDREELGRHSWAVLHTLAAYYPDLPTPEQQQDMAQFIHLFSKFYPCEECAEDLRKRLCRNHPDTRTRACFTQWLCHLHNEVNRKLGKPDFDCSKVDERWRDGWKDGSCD

## CCCCCCCSc1cc(OC)c(CCNC)cc1OC
[1]
  IC50: > 20 µM (inactive)
[2]
  EC50: > 120 µM (not active)
[3]
  EC50: > 120 µM (not active)
[4]
  AC50: 8.47 µM (active)
[5]
  EC50: 8.71 µM (active)
[6]
  AC50: 10.5 µM (active)
[7]
  AC50: 10.6 µM (active)
[8]
  EC50: 9.72 µM (active)
[9]
  EC50: 11.9 µM (active)
[10]
  AC50: 17.5 µM (active)

## O=C(CCCOc1ccccc1)N1CCCCC1
[2]
  EC50: 8.9 µM (active)
HT-1080
  EC50: > 50 µM (not active)
[11]
  EC50: < 0.2 µM (active)
[9]
  EC50: 8.68 µM (active)

## Cc1cccc(NC(=O)CSc2nnc(-c3ccco3)c(-c3ccco3)n2)c1C
[12]
  EC50: > 260 µM (inactive)
Leucine aminopeptidase
  IC50: 20.6 µM (active)
[13]
  IC50: 5.98 µM (active)
[14]
  CC50: > 40 µM (active)
[15]
  AC50: > 100 µM (inactive)
Genome polyprotein
  IC50: 96.3 µM (active)

## CCN(CCNC(=O)C1CCCN(Cc2nc(-c3ccc(OC)cc3)oc2C)C1)c1ccccc1 (centres undefined)
[16]
  EC50: < 0.1 µM (active)
[17]
  AC50: 0.01 µM (active)
[18]
  EC50: 7.96 µM (active)
cells
  EC50: 0.383 µM (active)

## CC(=O)n1cc([C@H]2C=C(C(=O)N3CCN(Cc4ccc5c(c4)OCO5)CC3)O[C@@H](OCc3ccc(CO)cc3)C2)c2ccccc21
[16]
  EC50: < 0.1 µM (active)
[18]
  EC50: > 30 µM (not active)
cells
  EC50: 0.197 µM (active)

## c1ccc(CN(CC2=NCCN2)c2ccccc2)cc1 [ANTAZOLINE HYDROCHLORIDE]
[19]
  IC50: > 29.9 µM (inactive)
[20]
  EC50: 4.31 µM (active)
